Among the test systems are UACC-257 melanoma; ACHN renal; IGROV1 ovarian; NCI-H226 lung; UACC-62 melanoma; UO-31 renal; DU-145 prostate; 786-0 renal; K-562 leukemia; LOX IMVI melanoma.
Common to all, as to assay: inhibition of tumour cell growth, NCI panel, 48 h

The structures appear in SMILES notation.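 Exposure lasted 48 hours, with cells grown in 96-well plates and compounds tested at five concentrations. Here, GI50 denotes the concentration required for 50% inhibition of growth. TGI marks complete inhibition of growth.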

For `Cc1cn(CC2=NCCN2)c(=O)[nH]c1=O`, the TGI with UACC-257 melanoma, with ACHN renal, in the experiment on IGROV1 ovarian, with NCI-H226 lung, with UACC-62 melanoma and in the experiment with UO-31 renal was over 100 µM in each case. The TGI with DU-145 prostate, in the experiment on 786-0 renal, with K-562 leukemia and in the experiment on LOX IMVI melanoma was over 100 µM each time.

Regarding `O=C1NCC2(CCNCC2)N1c1ccccc1`, the TGI in the experiment on UACC-257 melanoma, in the experiment with ACHN renal, in the experiment with IGROV1 ovarian, in the experiment on NCI-H226 lung, with UACC-62 melanoma and in the experiment with DU-145 prostate was over 100 µM each time. Besides, the TGI in the experiment with 786-0 renal, with K-562 leukemia and in the experiment on LOX IMVI melanoma was over 100 µM each time.

In the case of `CC1=C2C(=O)O[C@@H](c3ccoc3)[C@]2(C)CCC1=O`, the TGI in the experiment with UACC-257 melanoma, in the experiment on ACHN renal, with IGROV1 ovarian, in the experiment on NCI-H226 lung, in the experiment with UACC-62 melanoma and in the experiment on UO-31 renal was over 100 µM in each case. Also, the TGI in the experiment with DU-145 prostate, in the experiment with 786-0 renal, in the experiment on K-562 leukemia and in the experiment on LOX IMVI melanoma was over 100 µM in each case.

`CCC1(OC(=O)CN2CCN(CCO)CC2)C(=O)OCc2c1cc1n(c2=O)Cc2cc3ccccc3nc2-1` (stereo not given): the TGI with UACC-257 melanoma worked out at 8.05 µM; with ACHN renal, 1.52 µM; in the experiment with IGROV1 ovarian it was 17.4 µM; in the experiment with NCI-H226 lung, 2.2 µM; in the experiment with UACC-62 melanoma, 1.05 µM; with UO-31 renal, 0.851 µM. Besides, the TGI in the experiment with DU-145 prostate is 2.24 µM; in the experiment with 786-0 renal, 2.53 µM; in the experiment on K-562 leukemia it was 26.2 µM; in the experiment on LOX IMVI melanoma it was 1.58 µM.

Regarding `Cc1cc(S(N)(=O)=O)c(SCc2nc(N)nc(N(C)C)n2)cc1Cl`, the TGI in the experiment on UACC-257 melanoma, in the experiment with ACHN renal, in the experiment on IGROV1 ovarian, in the experiment with NCI-H226 lung, in the experiment on UO-31 renal and with DU-145 prostate was over 10 µM each time. For the same compound, the TGI in the experiment on 786-0 renal, with K-562 leukemia and in the experiment with LOX IMVI melanoma was over 10 µM each time.

Regarding `COc1ccccc1/C=C1\Sc2scc(-c3cccc([N+](=O)[O-])c3)[n+]2C1=O`, the TGI amounted to 19.8 µM in the experiment with UACC-257 melanoma; 9.93 µM with ACHN renal; 26.1 µM in the experiment with IGROV1 ovarian; 33.5 µM in the experiment on NCI-H226 lung; 22.6 µM with UACC-62 melanoma; 9.86 µM with UO-31 renal. Besides, the TGI in the experiment on DU-145 prostate was 26.6 µM; in the experiment with 786-0 renal, 9.63 µM; in the experiment on K-562 leukemia it was over 100 µM; in the experiment on LOX IMVI melanoma, 4.39 µM.

As for `O=C(c1ccc(Cl)cc1Cl)N(Cc1cccnc1)C(=S)N(Cc1cccnc1)C(=O)c1ccc(Cl)cc1Cl`, the TGI in the experiment with UACC-257 melanoma is 23.5 µM; in the experiment with ACHN renal, 23.5 µM; in the experiment with NCI-H226 lung it was 38.3 µM; in the experiment with UACC-62 melanoma, 23.8 µM; in the experiment on UO-31 renal, 12.9 µM; in the experiment on DU-145 prostate, 13 µM. The TGI in the experiment with 786-0 renal is 5.34 µM; with K-562 leukemia it was over 100 µM; in the experiment on LOX IMVI melanoma it was 16.7 µM.

For the compound `CC(NC1=CC(=O)c2ncccc2C1=O)C(O)c1ccccc1` (stereo not given), the TGI was 10.6 µM in the experiment with UACC-257 melanoma; 43.7 µM with ACHN renal; 16.4 µM with IGROV1 ovarian; 20.8 µM in the experiment with NCI-H226 lung; 17.2 µM with UO-31 renal; 16.6 µM in the experiment with DU-145 prostate. Moreover, the values for the TGI in the experiment with 786-0 renal, in the experiment on K-562 leukemia and in the experiment on LOX IMVI melanoma were 26.2 µM, 13.2 µM and 13.3 µM, respectively.

Turning to `O=S(=O)(c1cc(Cl)ccc1Cl)N1CCN(c2ccc(Cl)c(Cl)c2)CC1`, the TGI in the experiment with UACC-257 melanoma is 92.7 µM; in the experiment with ACHN renal it was 95.9 µM; in the experiment with IGROV1 ovarian it was over 100 µM; in the experiment on NCI-H226 lung, 54.1 µM; with UO-31 renal, over 100 µM; in the experiment on DU-145 prostate, over 100 µM. Also, the results for the TGI with 786-0 renal, with K-562 leukemia and in the experiment on LOX IMVI melanoma were 34.3 µM, over 100 µM and over 100 µM, respectively.

As to `Cc1nc(-c2ccccc2)c(C)n2c1nc1ccccc12`, the TGI in the experiment with UACC-257 melanoma was over 100 µM; with IGROV1 ovarian it was over 100 µM; in the experiment with NCI-H226 lung it was over 100 µM; in the experiment with UACC-62 melanoma, 41 µM; in the experiment with UO-31 renal it was 79.1 µM; in the experiment on DU-145 prostate it was over 100 µM. In addition, the TGI in the experiment on 786-0 renal, in the experiment on K-562 leukemia and in the experiment with LOX IMVI melanoma was over 100 µM in each case.

Turning to `COc1ccc(/C=C2\CN(C(=O)CCN3CCC(=NO)CC3)C/C(=C\c3ccc(OC)cc3)C2=O)cc1`, the GI50 is 2.65 µM in the experiment with UACC-257 melanoma; 1.95 µM in the experiment with ACHN renal; 1.94 µM with IGROV1 ovarian; 2.51 µM in the experiment with NCI-H226 lung; 1.89 µM with UACC-62 melanoma; 1.59 µM in the experiment with UO-31 renal. Moreover, the GI50 in the experiment with DU-145 prostate was 1.9 µM; with K-562 leukemia it was 1.2 µM; in the experiment on LOX IMVI melanoma, 1.47 µM. Also, the TGI in the experiment on UACC-257 melanoma amounted to 7.57 µM; with ACHN renal, 4.05 µM; in the experiment on IGROV1 ovarian it was 4.36 µM; with NCI-H226 lung it was 7.54 µM; in the experiment with UACC-62 melanoma it was 4.38 µM; with UO-31 renal it was 2.94 µM. Also, the TGI is 3.67 µM with DU-145 prostate, over 100 µM with K-562 leukemia and 2.96 µM with LOX IMVI melanoma.

Turning to `Clc1ccccc1/C=C/c1nsc(/C=C/c2ccccc2Cl)n1`, the TGI is 64.1 µM in the experiment with UACC-257 melanoma; over 100 µM with ACHN renal; over 100 µM in the experiment on IGROV1 ovarian; over 100 µM in the experiment with NCI-H226 lung; over 100 µM with UO-31 renal; over 100 µM with DU-145 prostate. For the same compound, the TGI in the experiment on 786-0 renal was 39.1 µM; in the experiment with K-562 leukemia, 48.5 µM; in the experiment with LOX IMVI melanoma, over 100 µM.

Regarding `NS(=O)(=O)c1ccc(NC(=O)c2cc([N+](=O)[O-])cc([N+](=O)[O-])c2)cc1`, the TGI with UACC-257 melanoma is 32 µM; with IGROV1 ovarian it was 79.9 µM; with NCI-H226 lung it was over 100 µM; in the experiment with UACC-62 melanoma it was 54.2 µM; in the experiment on UO-31 renal it was over 100 µM; in the experiment on DU-145 prostate it was over 100 µM. Further, the TGI was over 100 µM in the experiment on 786-0 renal, over 100 µM in the experiment on K-562 leukemia and 78.1 µM in the experiment on LOX IMVI melanoma.

Values taken from PubChem BioAssay (NCI).
